Source: the supplement of paper PMC11061612

Assays:
Experiment in all cases: Bliss excess, mean over the matrix (fraction); higher = more synergy
[1] = system: EBC-1 (Squamous Cell Lung Carcinoma)
Outline: (§1)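 Bliss excess equals the observed combination effect minus the expected value EA + EB − EA·EB, where EA and EB are the effects of each agent alone. Combination Emax is the second-highest inhibition within the matrix. Inhibition was scaled from CellTiter-Glo 2.0 luminescence, with 0 set by vehicle wells and 1 by blank wells, after 72 hours of two-drug dosing of cells plated in 1536-well plates.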

[2] = system: EMC-BAC-2 (Non-Small Cell Lung Carcinoma)
Outline: as §1

[3] = system: EW-13 (Ewing's Sarcoma)
Outline: as §1

[4] = system: GOTO (Neuroblastoma)
Outline: as §1

[5] = system: HuP-T3 (Pancreatic Carcinoma)
Outline: as §1

[6] = system: KINGS-1 (Low Grade Glioma)
Outline: as §1

[7] = system: KLE (Endometrial Carcinoma)
Outline: as §1

[8] = system: KU-19-19 (Bladder Carcinoma)
Outline: as §1

[9] = system: KYSE-150 (Esophageal Squamous Cell Carcinoma)
Outline: as §1

[10] = system: KYSE-50 (Esophageal Squamous Cell Carcinoma)
Outline: as §1

[11] = system: NCI-H2347 (Lung Adenocarcinoma)
Outline: as §1

[12] = system: NH-12 (Neuroblastoma)
Outline: as §1

[13] = system: OVISE (Ovarian Carcinoma)
Outline: as §1

[14] = system: SCC-3 (B-Cell Non-Hodgkin's Lymphoma)
Outline: as §1

Compound	Bliss excess [1]	Bliss excess [2]	Bliss excess [3]	Bliss excess [4]	Bliss excess [5]	Bliss excess [6]	Bliss excess [7]	Bliss excess [8]	Bliss excess [9]	Bliss excess [10]	Bliss excess [11]	Bliss excess [12]	Bliss excess [13]	Bliss excess [14]
CS(=O)(=O)CCNCc1ccc(-c2ccc3ncnc(Nc4ccc(OCc5cccc(F)c5)c(Cl)c4)c3c2)o1 [Lapatinib] + C[C@@H](Oc1cc(-c2cnn(C3CCNCC3)c2)cnc1N)c1c(Cl)ccc(F)c1Cl [Crizotinib] (first compound max 10 µM, 7x7, partner max 10 µM)	0.0978	-0.021	0.0066	-0.0499	-0.0563	0.0032	-0.0215	-0.034	-0.0355	-0.0352	-0.0421	-0.0827	0	0.0226
COc1cccc(OCCCN)c1-c1cc(Nc2cnc(C#N)cn2)n[nH]1 [Prexasertib] + O=C(c1cc(Cc2n[nH]c(=O)c3ccccc23)ccc1F)N1CCN(C(=O)C2CC2)CC1 [Olaparib] (first compound max 1 µM, 7x7, partner max 10 µM)	-0.0052	-0.0494	-0.0562	-0.101	-0.0595	-0.0979	0.0514	0.0061	0.0491	-0.117	-0.0407	-0.0746	-0.0578	-0.0133
COc1nnc2ccc(N3CCC(c4ccc(OCCN5CCN(C)C(=O)[C@H]5C)cc4)CC3)nn12 [AZD5153] + Cn1cnc2c(F)c(Nc3ccc(Br)cc3Cl)c(C(=O)NOCCO)cc21 [Selumetinib] (first compound max 1 µM, 7x7, partner max 10 µM)	0.0979	-0.0101	-0.0577	-0.0522	0.0075	-0.029	-0.0636	-0.0007	0.0195	0.0571	-0.0361	-0.0476	-0.0304	-0.053
COc1cc2c(cc1OCCCCCOc1cc3c(cc1OC)C(=O)N1C=C(C)C[C@H]1C=N3)N=C[C@@H]1CC(C)=CN1C2=O [SG3199] + O=C(c1cc(Cc2n[nH]c(=O)c3ccccc23)ccc1F)N1CCN(C(=O)C2CC2)CC1 [Olaparib] (first compound max 0.001 µM, 7x7, partner max 10 µM)	-0.014	-0.0467	-0.0415	0.0943	-0.0442	-0.0434	0.0057	-0.0041	-0.0131	-0.0319	-0.0661	0.0343	-0.0431	0.0586
C[C@@H](c1ccc2nccn2c1)n1nnc2ncc(-c3cnn(C)c3)nc21 [Savolitinib] + CC1(C)CCC(CN2CCN(c3ccc(C(=O)NS(=O)(=O)c4ccc(NCC5CCOCC5)c([N+](=O)[O-])c4)c(Oc4cnc5[nH]ccc5c4)c3)CC2)=C(c2ccc(Cl)cc2)C1 [Venetoclax] (first compound max 1 µM, 7x7, partner max 1 µM)	-0.0642	-0.0816	-0.0796	-0.0228	-0.0912	-0.0566	-0.111	-0.0468	-0.0686	-0.0636	-0.0848	-0.0158	-0.0481	-0.0166
Cc1cc2ncnn2cc1Nc1ncc2c(n1)n(C1CCOCC1)c(=O)n2C [AZD7648] + O=C(c1cc(Cc2n[nH]c(=O)c3ccccc23)ccc1F)N1CCN(C(=O)C2CC2)CC1 [Olaparib] (first compound max 10 µM, 7x7, partner max 10 µM)	-0.0167	-0.0399	-0.0427	0.0388	-0.0254	-0.0561	-0.013	-0.0153	-0.0351	-0.0246	-0.0144	0.0165	-0.0526	-0.0757
CCN(CCO)CCCOc1ccc2c(Nc3cc(CC(=O)Nc4cccc(F)c4)[nH]n3)ncnc2c1 [AZD2811] + O=C(c1cc(Cc2n[nH]c(=O)c3ccccc23)ccc1F)N1CCN(C(=O)C2CC2)CC1 [Olaparib] (first compound max 1 µM, 7x7, partner max 10 µM)	-0.0077	0.0112	-0.0532	0.0341	-0.0195	-0.0579	-0.282	0.0173	0.0291	0.0397	-0.0303	0.0109	-0.0255	0.0494
CN(CCO)CC[C@H](CSc1ccccc1)Nc1ccc(S(=O)(=O)NC(=O)c2ccc(N3CCC([C@@H](O)c4ccccc4-c4ccc(Cl)cc4)CC3)cc2)cc1S(=O)(=O)C(F)(F)F [AZD4320] + C1CN(CCC1(C(=O)N[C@@H](CCO)C2=CC=C(C=C2)Cl)N)C3=NC=NC4=C3C=CN4 [Capivasertib] (first compound max 1 µM, 7x7, partner max 3 µM)	-0.0181	-0.0761	-0.0633	-0.034	-0.0678	-0.103	-0.0467	-0.0394	-0.0579	-0.0344	-0.0533	-0.0589	-0.0459	-0.0506
Cc1cc2ncnn2cc1Nc1ncc2c(n1)n(C1CCOCC1)c(=O)n2C [AZD7648] + CCN(CCO)CCCOc1ccc2c(Nc3cc(CC(=O)Nc4cccc(F)c4)[nH]n3)ncnc2c1 [AZD2811] (first compound max 10 µM, 7x7, partner max 1 µM)	0.0147	0.0514	0.0259	0.0582	0.0003	0.0339	-0.0193	0.0227	0.003	0.0784	0.0131	-0.001	-0.0105	0.0548
CN(C)CCCOc1ccc(-c2ccc3ncc4c(c3c2)n(C2CCOCC2)c(=O)n4C)cn1 [AZD0156] + C[C@@H]1COCCN1C2=NC(=NC(=C2)C3(CC3)[S@](=N)(=O)C)C4=C5C=CNC5=NC=C4 [AZD6738] (first compound max 1 µM, 7x7, partner max 10 µM)	0.0195	0.0272	0.0006	-0.0394	0.0181	-0.0474	-0.0567	0.0275	0.0146	0.0101	-0.049	-0.0215	0.0317	0.0521
CC(=O)c1c(C)c2cnc(Nc3ccc(N4CCNCC4)cn3)nc2n(C2CCCC2)c1=O [Palbociclib] + Cn1cnc2c(F)c(Nc3ccc(Br)cc3Cl)c(C(=O)NOCCO)cc21 [Selumetinib] (first compound max 10 µM, 7x7, partner max 10 µM)	0.0982	0.0049	-0.0287	0.0623	-0.014	-0.0272	0.0167	-0.0054	0.127	0.0789	-0.0362	0.0409	-0.0174	0.0581
